Tested on: P. aeruginosa PAO1 biofilm
Experiment: Biofilm prevention in MBEC plate (crystal violet)
Assay type: cell-based, Pseudomonas aeruginosa
Details: 5 μM PPMO, 2 μg/mL PMBN, MHII, 20 hours; one-way ANOVA p<0.0001
Method: P. aeruginosa PAO1 (5×10^5 cfu/mL) was grown in MHII media in an MBEC plate for 20 hours either alone or in the presence of 5 μM of the indicated PPMOs, PMBN alone, (RXR)4, or a scrambled PPMO. All conditions contained 2 μg/mL of PMBN unless indicated otherwise. Pegs were processed for crystal violet or visualized by microscopy at 20 hours. […] FIGS. 6B-6D: Spinning Disk confocal microscopy images of 20 hour biofilm treated with (FIG. 6B) No PPMO, (FIG. 6C) 5 μM Scr PPMO #41, (FIG. 6D) 5 μM RpsJ PPMO #14. PAO1 GFP is shown in green and biofilm is shown in red. The biofilm is stained with 200 μg/mL of Concanavalin A, Alexafluor 647 conjugate.
Pseudomonas aeruginosa Biofilm Prevention in MBEC Plate Protocol
• 1. 10 mL of MH is inoculated with a single colony and incubated at 37° C. and ˜250 rpm for about 5 hours. • 2. The sample is centrifuged for 10 minutes at ˜4000 rpm at 4° C., the supernatant is decanted and the pellet resuspended in 10 mL of 150 mM NaCl or PBS. This step is repeated to wash the pellet 3 times. • 3. The sample is resuspended in 10 mL 150 mM NaCl or PBS. • 4. The OD600 of the sample is taken and cfu/mL is calculated. (OD600 usually between 0.65-0.80). • 5. A Bacterial Working Solution (BWS) is made by inoculating 10 mL of MH to 5×10^5 cfu/mL final concentration. • 6. 2 μL/mL of 1 mg/mL stock PMBN is added to the BWS and vortexed 3 times. • 7. 1 mL of BWS is pipetted into each separate Eppendorf tube for each condition that is tested. • 8. An appropriate amount of PPMO is added to each Eppendorf tube and vortexed 3 times. • 9. Outside wells are filled with fresh MH, NaCl, or PBS to keep the outer pegs from drying out. • 10. One column of the MBEC plate is filled with 150 μL per well from each Eppendorf tube (one condition per column). • 11. Pegs are placed into the MBEC plate and the edges covered with a breathable membrane. • 12. The MBEC plate is incubated for 18-20 hours at 37° C. and 110 rpm. Day 2:
1. […] The final OD570 of the 10× dilution of solution should be approximately 0.500 absorbance. […]
2. OD reading: The OD570 for the 96-well plate from step 1e is determined. […]

Substance: PPMO #14: RpsJ PMO GCATTTGACCT, 5′ TEG, 3′ (RXR)4XB CPP
- prevention of biofilm (crystal violet): statistically significant prevention of biofilm

Source: US11293024B2, “Antisense antibacterial compounds and methods” (priority 2014, dated 2022)
